Assay results as given in EP0148283A1, “Novel penicillanic acid derivatives” (F. HOFFMANN-LA ROCHE & CO. Aktiengesellschaft, priority 1983, dated 1985).
Like-named read-outs stand apart in the source and are kept apart here.

Experiments:
Assay in all cases: In vitro antibacterial activity, MIC by broth dilution in 96-well trays
Type in all cases: cell-based
C. freundii = conditions: Citrobacter freundii
Description: (§1) The in vitro antibacterial activity of the following compounds:
(§2) The diluted agents are dispensed in 100 µl amounts into the wells of a 96-well tray and used immediately or frozen at -10 to -70°C until needed. Using an automated inoculator, 1.5 µl of a 10^-2 dilution of an overnight culture is added to each well of the tray. The tops of the trays are then sealed using transparent tape and incubated overnight at 37°C. The trays are examined with the aid of a viewer. The lowest concentration at which no growth is observed is considered to be the minimum inhibitory concentration (MIC). [formula] [formula] [formula] [formula] [formula] [formula] [formula] [formula] [formula] [formula] [formula]

S. typhi P58A = conditions: Salmonella enterica
Description: as §1, §2

E. cloacae = conditions: Enterobacter cloacae
Description: as §1, §2

K. pneumoniae = conditions: Klebsiella pneumoniae
Description: as §1, §2

E. aerogenes = conditions: Klebsiella aerogenes
Description: as §1, §2

C. diversus = conditions: Citrobacter koseri; C. diversus strain CDC 1663-72
Description: as §1, §2

P. rettgeri = conditions: Providencia rettgeri, ATCC9250; P. rettgeri strain ATCC 9250
Description: as §1, §2

P. vulgaris = conditions: Proteus vulgaris
Description: as §1, §2

S. schottmuelleri = tested on: S. schottmuelleri
Description: as §1, §2

E. coli = conditions: Escherichia coli
Description: as §1, §2

S. marcescens = tested on: S. marcescens
Description: as §1, §2

P. mirabilis = conditions: Proteus mirabilis
Description: as §1, §2

Measured: MIC

CC1(C)S[C@@H]2[C@H](/N=C/N3CCCCCC3)C(=O)N2[C@H]1C(=O)O [Amdinocillin]
1 µg/mL: S. marcescens; Serratia marcescens, S. marcescens strain 5805, read-out: MIC | S. marcescens; Serratia marcescens, S. marcescens strain S4, read-out: MIC | S. marcescens; Serratia marcescens, S. marcescens strain S5, read-out: MIC
0.5 µg/mL: P. vulgaris; P. vulgaris strain 100 | S. marcescens; Serratia marcescens, S. marcescens strain S714, read-out: MIC
16 µg/mL: E. cloacae; E. cloacae strain 6951
64 µg/mL: K. pneumoniae; K. pneumoniae strain 4964, read-out: MIC | P. vulgaris; P. vulgaris strain 101 | P. mirabilis; P. mirabilis strain 620A, read-out: MIC
8 µg/mL: E. aerogenes; E. aerogenes strain 83, read-out: MIC | E. coli; E. coli strain 5152
2 µg/mL: E. coli; E. coli strain 503-455 | P. mirabilis; P. mirabilis strain 503-1136, read-out: MIC
0.25 µg/mL: E. cloacae; E. cloacae strain 5699 | E. cloacae; E. cloacae strain 9295 | K. pneumoniae; K. pneumoniae strain 8357, read-out: MIC | S. marcescens; Serratia marcescens, S. marcescens strain S1, read-out: MIC | S. marcescens; Serratia marcescens, S. marcescens strain S2, read-out: MIC | P. mirabilis; P. mirabilis strain 2, read-out: MIC | P. mirabilis; P. mirabilis strain 90, read-out: MIC
> 128 µg/mL: K. pneumoniae; K. pneumoniae strain HE7, read-out: MIC
4 µg/mL: E. aerogenes; E. aerogenes strain 503-478, read-out: MIC
128 µg/mL: K. pneumoniae; K. pneumoniae strain 5096 | E. aerogenes
0.031 µg/mL: K. pneumoniae; K. pneumoniae strain A, read-out: MIC | P. vulgaris; ATCC6380, P. vulgaris strain ATCC 6380 | E. coli; E. coli strain 387-1
0.125 µg/mL: C. freundii; C. freundii strain CDC6 | E. cloacae; E. cloacae strain 24 | E. cloacae; E. cloacae strain 214 | E. cloacae; E. cloacae strain 9570A | K. pneumoniae; K. pneumoniae strain 35 | K. pneumoniae; K. pneumoniae strain 503-964 | P. rettgeri | E. coli; E. coli strain 257 | E. coli; E. coli strain R-563 | S. marcescens; S. marcescens strain S3 | S. marcescens; S. marcescens strain S147 | S. marcescens; Serratia marcescens | P. mirabilis
0.062 µg/mL: C. freundii; C. freundii strain 8ASM, read-out: MIC | S. typhi P58A | E. cloacae; E. cloacae strain P99 | K. pneumoniae; K. pneumoniae strain 503-994, read-out: MIC | C. diversus | S. schottmuelleri | E. coli; E. coli strain 4 | E. coli; E. coli strain 48
